Source: ChEMBL document CHEMBL1155907, “Structure-activity relationship of flavonoids as influenza virus neuraminidase inhibitors and their in vitro anti-viral activities” (Bioorg Med Chem, 2008)

Columns and labels:
[1] = Cytotoxicity against MDCK cells by MTT assay; assay type: cell-based, Canis lupus familiaris; settings: dog
Influenza A virus = test: Antiviral activity against Influenza A virus Jinan/15/90 H3N2 assessed as reduction of virus-induced cytopathic effect; assay type: functional, organism-based
Neuraminidase [2] = biological target: T1, Neuraminidase (Influenza A virus, UniProt B4URF0)
T1 sequence (B4URF0 whole entry): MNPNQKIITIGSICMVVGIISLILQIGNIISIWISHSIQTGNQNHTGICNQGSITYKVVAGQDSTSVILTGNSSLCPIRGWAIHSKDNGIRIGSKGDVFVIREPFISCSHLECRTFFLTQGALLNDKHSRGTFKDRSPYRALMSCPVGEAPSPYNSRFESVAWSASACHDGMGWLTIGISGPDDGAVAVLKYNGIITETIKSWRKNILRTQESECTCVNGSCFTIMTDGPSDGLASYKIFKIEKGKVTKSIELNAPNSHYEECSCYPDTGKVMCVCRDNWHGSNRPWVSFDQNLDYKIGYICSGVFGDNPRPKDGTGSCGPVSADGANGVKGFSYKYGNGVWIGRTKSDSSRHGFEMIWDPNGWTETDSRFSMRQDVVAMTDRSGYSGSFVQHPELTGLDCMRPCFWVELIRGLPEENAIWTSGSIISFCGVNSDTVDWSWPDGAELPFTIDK

Neuraminidase [3] = biological target: T1, Neuraminidase; set-up: species or system Influenza A virus (A/Puerto Rico/8/1934(H1N1))
[4] = Selectivity index, ratio of CC50 to MDCK cells to IC50 to Influenza A Jinan/15/90 H3N2 virus; assay type: functional
[5] = Cytotoxicity against MDCK cells assessed as maximal non-cytotoxic concentration by MTT assay; assay type: cell-based, Canis lupus familiaris; settings: dog, read-out: MNCC
Neuraminidase [6] = biological target: T1, Neuraminidase; set-up: species or system Influenza B virus

SMILES	CC50 [1]	IC50 (Influenza A virus)	IC50 (Neuraminidase [2])	IC50 (Neuraminidase [3])	Ratio CC50/IC50 [4]	MNTC [5]	IC50 (Neuraminidase [6])
O=c1cc(-c2ccc(O)c(O)c2)oc2cc(O)cc(O)c12 [LUTEOLIN]	12.4 µM	6.82 µM	32.6 µM	33.7 µM	1.82	7.2 µM	53.3 µM
O=c1c(O)c(-c2ccc(O)cc2)oc2cc(O)cc(O)c12 [KAEMPFEROL]			38.1 µM	58.6 µM			46.4 µM
O=c1cc(-c2ccc(O)cc2)oc2cc(O)cc(O)c12 [APIGENIN]	39.6 µM	4.74 µM	28.9 µM	31.6 µM	8.35	7.63 µM	45.7 µM
O=c1c(-c2ccc(O)cc2)coc2cc(O)ccc12 [DAIDZEIN]	> 787 µM	> 787 µM	26.6 µM	37.1 µM		> 787 µM	46.8 µM
O=c1c(O)c(-c2ccc(O)c(O)c2)oc2cc(O)cc(O)c12 [QUERCETIN]			87.6 µM	58.4 µM			67.5 µM
O=c1c(-c2ccc(O)cc2)coc2cc(O)cc(O)c12 [GENISTEIN]			134 µM	77.1 µM			83.3 µM
COc1ccc([C@@H]2CC(=O)c3c(O)cc(O[C@@H]4O[C@H](CO[C@@H]5O[C@@H](C)[C@H](O)[C@@H](O)[C@H]5O)[C@@H](O)[C@H](O)[C@H]4O)cc3O2)cc1O [HESPERIDIN]			> 100 µM	> 100 µM			> 100 µM
O=c1cc(-c2ccc(O)cc2)oc2c([C@@H]3O[C@H](CO)[C@@H](O)[C@H](O)[C@H]3O)c(O)cc(O)c12 [VITEXIN]			45.1 µM	46.5 µM			49.6 µM
COc1cc(O)c2c(=O)c(O)c(-c3ccc(O)cc3)oc2c1 [RHAMNOCITRIN]			83.9 µM	51.5 µM			62 µM
O=c1c(-c2ccc(O[C@@H]3O[C@H](CO)[C@@H](O)[C@H](O)[C@H]3O)cc2)coc2cc(O)cc(O)c12 [SOPHORICOSIDE]			> 100 µM	> 100 µM			> 100 µM
Oc1cc(O)c2c(c1)O[C@H](c1ccc(O)c(O)c1)[C@@H](O)C2 [CATECHIN]			> 100 µM	> 100 µM			> 100 µM
COc1ccc(-c2coc3cc(O)ccc3c2=O)cc1 [FORMONONETIN]			> 100 µM	> 100 µM			> 100 µM
O=C1C[C@@H](c2ccc(O[C@@H]3O[C@H](CO)[C@@H](O)[C@H](O)[C@H]3O)cc2)Oc2cc(O)ccc21 [LIQUIRITIN]			> 100 µM	> 100 µM			> 100 µM
CCC(CC)O[C@@H]1C=C(C(=O)O)C[C@H](N)[C@H]1NC(C)=O [OSELTAMIVIR CARBOXYLATE]	17.1 µM	0.15 µM				1.02 µM	
O=C1C[C@@H](c2ccc(O)cc2)Oc2cc(O)cc(O)c21 [NARINGENIN]			> 100 µM	> 100 µM			> 100 µM
O=C1/C(=C\c2ccc(O)cc2)Oc2cc(O)ccc21	152 µM	15.7 µM	22.1 µM	22 µM	9.64	87.5 µM	22.9 µM
O=C1/C(=C/c2ccc(O)c(O)c2)Oc2cc(O)ccc21 [SULFURETIN]	27.4 µM	> 9.15 µM	51.2 µM	29.6 µM		9.15 µM	36.2 µM
O=c1cc(-c2ccc(O)c(O)c2)oc2cc(O[C@@H]3O[C@H](CO)[C@@H](O)[C@H](O)[C@H]3O)cc(O)c12 [GALUTEOLIN]	> 1120 µM	> 1120 µM	52.2 µM	47.4 µM		> 1120 µM	58.6 µM
O=C1/C(=C\c2ccccc2)Oc2cc(O)ccc21			73.3 µM	72 µM			86.6 µM
O=C(O)[C@H]1O[C@@H](Oc2cc3oc(-c4ccc(O)cc4)cc(=O)c3c(O)c2O)[C@H](O)[C@@H](O)[C@@H]1O [SCUTELLARIN]			47.3 µM	50.6 µM			59.9 µM
COc1c(O)cc2oc(-c3ccc(O)cc3)cc(=O)c2c1O [HISPIDULIN]	172 µM	24.7 µM	26 µM	46.3 µM	6.98	24.7 µM	33.2 µM
O=c1c(O)c(-c2cc(O)c(O)c(O)c2)oc2cc(O)cc(O)c12 [MYRICETIN]			46.2 µM	82.6 µM			75.4 µM
O=C1/C(=C\c2ccc(O)cc2)Oc2cc(O)cc(O)c21	> 741 µM	> 741 µM	22.3 µM	25.6 µM		> 741 µM	25.4 µM
Oc1cc(O)c2c(c1)O[C@@H](c1ccc(O)c(O)c1)[C@@H](O)C2 [(+)-EPICATECHIN]			> 100 µM	> 100 µM			> 100 µM
C[C@@H]1O[C@@H](OC[C@H]2O[C@@H](Oc3c(-c4ccc(O)c(O)c4)oc4cc(O)cc(O)c4c3=O)[C@H](O)[C@@H](O)[C@@H]2O)[C@H](O)[C@H](O)[C@H]1O [RUTIN]			87.7 µM	52.2 µM			> 100 µM
O=c1cc(-c2ccccc2)oc2cc(O)cc(O)c12 [CHRYSIN]			33.4 µM	45.7 µM			52.9 µM
NC(=O)c1ncn([C@@H]2O[C@H](CO)[C@@H](O)[C@H]2O)n1 [RIBAVIRIN]	> 512 µM	25.6 µM			>19.98		
